# Measurements published in ChEMBL document CHEMBL3751662, “Novel quinoline derivatives as potent in vitro -glucosidase inhibitors: in silico studies and SAR predictions” (Medchemcomm, 2015).
# pIC50: −log10 of the molar value.
# How the values were obtained:
# [1] = Cytotoxicity against Wistar rat CC1 cells assessed as cell viability at 1 to 20 ug/ml after 48 hrs by MTT assay; type: cell-based; settings: cc-1, 48 h
# [2] = target: alpha-glucosidase (Saccharomyces cerevisiae); experiment: Inhibition of alpha-glucosidase (Saccharomyces cerevisiae) using p-nitrophenyl glucopyranoside as substrate preincubated for 10 mins followed by substrate addition measured after 30 mins by plate reader analysis
# [3] = Cytotoxicity against mouse 3T3L1 cells assessed as cell viability at 1 to 20 ug/ml after 48 hrs by MTT assay; type: cell-based; settings: 3t3-l1, 48 h
# [4] = test system: alpha-glucosidase (Saccharomyces cerevisiae); experiment: Potency index, ratio of acarbose IC50 to compound IC50 for alpha glucosidase (Saccharomyces cerevisiae)
SMILES,Activity [1],pIC50 [2],Activity [3],Ratio IC50 [4],inhibition [2]
Cc1cccc(/C=N/NC(=O)c2ccc(-c3nnc(-c4ccc5ncccc5c4)o3)cc2)c1,Non-toxic,4.00,Non-toxic,,
O=C(N/N=C/c1cc(O)c(O)cc1O)c1ccc(-c2nnc(-c3ccc4ncccc4c3)o2)cc1,Non-toxic,5.59,Non-toxic,> 14,
O=C(N/N=C/c1ccc(O)cc1O)c1ccc(-c2nnc(-c3ccc4ncccc4c3)o2)cc1,Non-toxic,5.07,Non-toxic,,
O=C(N/N=C/c1cccc(O)c1O)c1ccc(-c2nnc(-c3ccc4ncccc4c3)o2)cc1,Non-toxic,5.17,Non-toxic,,
COc1ccc(/C=N/NC(=O)c2ccc(-c3nnc(-c4ccc5ncccc5c4)o3)cc2)cc1O,Non-toxic,4.67,Non-toxic,,
Cc1ccccc1/C=N/NC(=O)c1ccc(-c2nnc(-c3ccc4ncccc4c3)o2)cc1,Non-toxic,4.10,Non-toxic,,
O=C(N/N=C/c1c(O)cc(O)cc1O)c1ccc(-c2nnc(-c3ccc4ncccc4c3)o2)cc1,Non-toxic,5.09,Non-toxic,,
O=C(N/N=C/c1ccccc1O)c1ccc(-c2nnc(-c3ccc4ncccc4c3)o2)cc1,Non-toxic,5.54,Non-toxic,> 14,
O=C(N/N=C/c1cccc(Cl)c1)c1ccc(-c2nnc(-c3ccc4ncccc4c3)o2)cc1,Non-toxic,4.52,Non-toxic,,
O=C(N/N=C/c1cccc([N+](=O)[O-])c1)c1ccc(-c2nnc(-c3ccc4ncccc4c3)o2)cc1,Non-toxic,4.44,Non-toxic,,
O=C(N/N=C/c1cc(O)ccc1O)c1ccc(-c2nnc(-c3ccc4ncccc4c3)o2)cc1,Non-toxic,5.07,Non-toxic,,
O=C(N/N=C/c1cccnc1)c1ccc(-c2nnc(-c3ccc4ncccc4c3)o2)cc1,Non-toxic,,Non-toxic,,< 50%
O=C(N/N=C/c1ccccn1)c1ccc(-c2nnc(-c3ccc4ncccc4c3)o2)cc1,Non-toxic,4.39,Non-toxic,,
O=C(N/N=C/c1ccc(O)cc1)c1ccc(-c2nnc(-c3ccc4ncccc4c3)o2)cc1,Non-toxic,4.57,Non-toxic,,
Cc1ccc(/C=N/NC(=O)c2ccc(-c3nnc(-c4ccc5ncccc5c4)o3)cc2)cc1,Non-toxic,3.99,Non-toxic,,
O=C(N/N=C/c1cccc(O)c1)c1ccc(-c2nnc(-c3ccc4ncccc4c3)o2)cc1,Non-toxic,4.41,Non-toxic,,
O=C(N/N=C/c1ccncc1)c1ccc(-c2nnc(-c3ccc4ncccc4c3)o2)cc1,Non-toxic,,Non-toxic,,< 50%
COc1ccc(/C=N/NC(=O)c2ccc(-c3nnc(-c4ccc5ncccc5c4)o3)cc2)c(O)c1,Non-toxic,5.04,Non-toxic,,
O=C(N/N=C/c1ccc(O)c(O)c1)c1ccc(-c2nnc(-c3ccc4ncccc4c3)o2)cc1,Non-toxic,5.59,Non-toxic,> 14,
O=C(N/N=C/c1ccccc1Cl)c1ccc(-c2nnc(-c3ccc4ncccc4c3)o2)cc1,Non-toxic,5.38,Non-toxic,,
O=C(N/N=C/c1ccccc1[N+](=O)[O-])c1ccc(-c2nnc(-c3ccc4ncccc4c3)o2)cc1,Non-toxic,4.82,Non-toxic,,
O=C(N/N=C/c1ccc(Cl)cc1)c1ccc(-c2nnc(-c3ccc4ncccc4c3)o2)cc1,Non-toxic,5.41,Non-toxic,,
O=C(N/N=C/c1ccc([N+](=O)[O-])cc1)c1ccc(-c2nnc(-c3ccc4ncccc4c3)o2)cc1,Non-toxic,4.20,Non-toxic,,
O=C(N/N=C/c1cc(O)cc(O)c1)c1ccc(-c2nnc(-c3ccc4ncccc4c3)o2)cc1,Non-toxic,4.43,Non-toxic,,
COc1ccc(O)c(/C=N/NC(=O)c2ccc(-c3nnc(-c4ccc5ncccc5c4)o3)cc2)c1,Non-toxic,5.21,Non-toxic,,
